Test results from US7491819B1 (priority 2004, dated 2009).

biological target: T1, HIV-integrase (Human immunodeficiency virus type 1 group M subtype B, UniProt P12497); experiment: HIV-Integrase Inhibition Activity (SPA bead strand-transfer assay); assay type: biochemical; details: Table 1; read-out: Activity (HIV-integrase inhibition, IC50 class)
T1 construct: Recombinant integrase (0.26 ng) was incubated with the beads
Procedure, shortened: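 Biotin-labelled substrate DNA (5 pmole) bound to streptavidin SPA beads, preloaded with recombinant integrase (0.26 ng) for 90 min at 37° C, then washed. Inhibitors and 0.1 fmol P33-labelled target DNA added; reaction stopped with 10 mM EDTA. Integration read as scintillation CPM.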

CC1(C)OCCn2c1nc(C(=O)NCc1ccc(F)cc1-n1cnc(C(=O)O)n1)c(O)c2=O [Example 61, 1H-1,2,4-Triazole-3-carboxylic acid, 1-[5-fluoro-2-[[[(4,6,7,9-tetrahydro-3-hydroxy-9,9-dimethyl-4-oxopyrimido[2,1-c][1,4]oxazin-2-yl)carbonyl]amino]methyl]phenyl]-] and CN1CCN(C(=O)c2ncn(-c3cc(F)ccc3CNC(=O)c3nc4n(c(=O)c3O)CCOC4(C)C)n2)CC1 [Example 69, Pyrimido[2,1-c][1,4]oxazine-2-carboxamide, N-[[4-fluoro-2-[3-[(4-methyl-1-piperazinyl)carbonyl]-1H-1,2,4-triazol-1-yl]phenyl]methyl]-4,6,7,9-tetrahydro-3-hydroxy-9,9-dimethyl-4-oxo-] fall in the same range of IC50: 2 to 100 nM for the first, 2 to 100 nM for the second.

CC1(C)OCCn2c1nc(C(=O)NCc1cc(Br)c(F)cc1Br)c(O)c2=O [Example 201, Pyrimido[2,1-c][1,4]oxazine-2-carboxamide, N-[(4-fluoro-2,5-dibromophenyl)methyl]-4,6,7,9-tetrahydro-3-hydroxy-9,9-dimethyl-4-oxo] and Cc1ccc(Cl)cc1CNC(=O)c1nc2n(c(=O)c1O)CCOC2(C)C [Example 251, Pyrimido[2,1-c][1,4]oxazine-2-carboxamide, N-[(5-chloro-2-methylphenyl)methyl]-4,6,7,9-tetrahydro-3-hydroxy-9,9-dimethyl-4-oxo-] fall in the same range of IC50: 2 to 100 nM for the first, 2 to 100 nM for the second.

CCc1cc(CNC(=O)c2nc3n(c(=O)c2O)CCOC3(C)C)ccc1F [Example 247, Pyrimido[2,1-c][1,4]oxazine-2-carboxamide, N-[(3-ethyl-4-fluorophenyl)methyl]-4,6,7,9-tetrahydro-3-hydroxy-9,9-dimethyl-4-oxo-] and Cc1ccc(CNC(=O)c2nc3n(c(=O)c2O)CCOC3(C)C)cc1Cl [Example 231, Pyrimido[2,1-c][1,4]oxazine-2-carboxamide, N-[(3-chloro-4-methylphenyl)methyl]-4,6,7,9-tetrahydro-3-hydroxy-9,9-dimethyl-4-oxo-] fall in the same range of IC50: 2 to 100 nM for the first, 2 to 100 nM for the second.

CC1(C)OCCn2c1nc(C(=O)NCc1ccc(F)cc1Nc1nccs1)c(O)c2=O [Example 115, Pyrimido[2,1-c][1,4]oxazine-2-carboxamide, N-[[4-fluoro-2-(2-thiazolylamino)phenyl]methyl]-4,6,7,9-tetrahydro-3-hydroxy-9,9-dimethyl-4-oxo-] and CCNc1cc(F)ccc1CNC(=O)c1nc2n(c(=O)c1O)CCOC2(C)C [Example 87, Pyrimido[2,1-c][1,4]oxazine-2-carboxamide, N-[[2-(ethylamino)-4-fluorophenyl]methyl]-4,6,7,9-tetrahydro-3-hydroxy-9,9-dimethyl-4-oxo-] fall in the same range of IC50: 2 to 100 nM for the first, 2 to 100 nM for the second.

CCOc1ccc(-c2ccccc2CNC(=O)c2nc3n(c(=O)c2O)CCOC3(C)C)cn1 [Example 199, Pyrimido[2,1-c][1,4]oxazine-2-carboxamide, N-[[2-(6-ethoxy-3-pyridinyl)phenyl]methyl]-4,6,7,9-tetrahydro-3-hydroxy-9,9-dimethyl-4-oxo-] and COc1ccc(-c2cc(F)ccc2CNC(=O)c2nc3n(c(=O)c2O)CCOC3(C)C)cn1 [Example 77, Pyrimido[2,1-c][1,4]oxazine-2-carboxamide, N-[[4-fluoro-2-(6-methoxy-3-pyridinyl)phenyl]methyl]-4,6,7,9-tetrahydro-3-hydroxy-9,9-dimethyl-4-oxo] fall in the same range of IC50: 2 to 100 nM for the first, 2 to 100 nM for the second.

First: CN(C)c1ccc(CNC(=O)c2nc3n(c(=O)c2O)CCOC3(C)C)cc1 [Example 257, Pyrimido[2,1-c][1,4]oxazine-2-carboxamide, N-[[4-(dimethylamino)phenyl]methyl]-4,6,7,9-tetrahydro-3-hydroxy-9,9-dimethyl-4-oxo-]
Second: CC(C)Oc1ccc(CNC(=O)c2nc3n(c(=O)c2O)CCOC3(C)C)cc1 [Example 145, Pyrimido[2,1-c][1,4]oxazine-2-carboxamide, 4,6,7,9-tetrahydro-3-hydroxy-9,9-dimethyl-N-[[4-(1-methylethoxy)phenyl]methyl]-4-oxo-]
The IC50 of the first is lower: 2 to 100 nM for the first, > 1000 nM for the second.

CC1(C)OCCn2c1nc(C(=O)NCc1ccccc1-c1ccc(F)c(F)c1)c(O)c2=O [Example 188, Pyrimido[2,1-c][1,4]oxazine-2-carboxamide, N-[(3′,4′-difluoro[1,1′-biphenyl]-2-yl)methyl]-4,6,7,9-tetrahydro-3-hydroxy-9,9-dimethyl-4-oxo-] and CC1(C)OCCn2c1nc(C(=O)NCc1ccccc1-c1ccoc1)c(O)c2=O [Example 198, Pyrimido[2,1-c][1,4]oxazine-2-carboxamide, N-[[2-(3-furanyl)phenyl]methyl]-4,6,7,9-tetrahydro-3-hydroxy-9,9-dimethyl-4-oxo-] fall in the same range of IC50: 2 to 100 nM for the first, 2 to 100 nM for the second.

CC1(C)OCCn2c1nc(C(=O)NCc1ccc(F)cc1N1C(=O)CC[C@@H]1CO)c(O)c2=O [Example 128, Pyrimido[2,1-c][1,4]oxazine-2-carboxamide, N-[[4-fluoro-2-[(2R)-2-(hydroxymethyl)-5-oxo-1-pyrrolidinyl]phenyl]methyl]-4,6,7,9-tetrahydro-3-hydroxy-9,9-dimethyl-4-oxo-] and CC1(C)OCCn2c1nc(C(=O)NCc1ccc(F)cc1-n1cncn1)c(O)c2=O [Example 21, Pyrimido[2,1-c][1,4]oxazine-2-carboxamide, N-[[4-fluoro-2-(1H-1,2,4-triazol-1-yl)phenyl]methyl]-4,6,7,9-tetrahydro-3-hydroxy-9,9-dimethyl-4-oxo-] fall in the same range of IC50: 2 to 100 nM for the first, 2 to 100 nM for the second.

CC1(C)OCCn2c1nc(C(=O)NCc1cccc3c1S(=O)(=O)CC3)c(O)c2=O [Example 140, Pyrimido[2,1-c][1,4]oxazine-2-carboxamide, N-[(2,3-dihydro-1,1-dioxidobenzo[b]thien-7-yl)methyl]-4,6,7,9-tetrahydro-3-hydroxy-9,9-dimethyl-4-oxo-] and CC1(C)OCCn2c1nc(C(=O)NCc1ccccc1O)c(O)c2=O [Example 258, Pyrimido[2,1-c][1,4]oxazine-2-carboxamide, 4,6,7,9-tetrahydro-3-hydroxy-N-[(2-hydroxyphenyl)methyl]-9,9-dimethyl-4-oxo-] fall in the same range of IC50: 2 to 100 nM for the first, 2 to 100 nM for the second.

CN(C)CCN(C)C(=O)c1ncn(-c2cc(F)ccc2CNC(=O)c2nc3n(c(=O)c2O)CCOC3(C)C)n1 [Example 71, Pyrimido[2,1-c][1,4]oxazine-2-carboxamide, N-[[2-[3-[[[2-(dimethylamino)ethyl]methylamino]carbonyl]-1H-1,2,4-triazol-1-yl]-4-fluorophenyl]methyl]-4,6,7,9-tetrahydro-3-hydroxy-9,9-dimethyl-4-oxo-] and CC1(C)OCCn2c1nc(C(=O)NCc1ccc3c(c1)OCO3)c(O)c2=O [Example 218, Pyrimido[2,1-c][1,4]oxazine-2-carboxamide, N-(1,3-benzodioxol-5-ylmethyl)-4,6,7,9-tetrahydro-3-hydroxy-9,9-dimethyl-4-oxo-] fall in the same range of IC50: 2 to 100 nM for the first, 2 to 100 nM for the second.

CC1(C)OCCn2c1nc(C(=O)NCc1ccccc1-c1ccccc1)c(O)c2=O [Example 160, Pyrimido [2,1-c][1,4]oxazine-2-carboxamide, N-([1,1′-biphenyl]-2-ylmethyl)-4,6,7,9-tetrahydro-3-hydroxy-9,9-dimethyl-4-oxo-] and C[S+]([O-])c1ccccc1CNC(=O)c1nc2n(c(=O)c1O)CCOC2(C)C (stereo not shown) [Example 113, Pyrimido[2,1-c][1,4]oxazine-2-carboxamide, 4,6,7,9-tetrahydro-3-hydroxy-9,9-dimethyl-N-[[2-(methylsulfinyl)phenyl]methyl]-4-oxo-] fall in the same range of IC50: 2 to 100 nM for the first, 2 to 100 nM for the second.
